This is an account of results in US20110046056A1, “APOA-1 PEPTIDE MIMETICS” (priority 2007, published 2011).

Read-outs that look alike come from different tables or passages of the source. *1 amine or outer side, *2 acyl side, *3 side chain or, on linkers, in order; H or OH if unused. Where a SMILES comes first, the peptide text is derived from it. Bridges are numbered along the chain shown (N, C = ends). Where no end group is shown, it is not given here. [ ]: non-standard residue; d: D form. S6H = (2S)-2-aminooct-7-enoic acid, C=CCCCC[C@H](N[*:1])C(=O)[*:2]; R5Me = hydrocarbon side chain-substituted amino acid; dNle(6-ylidene) = O=C([C@@H](CCCC=[*:3])N[*:1])[*:2]; dGly(6-heptenyl) = C=CCCCCC[C@@H](N)C(=O)O; X2 = O=C([C@@H](CCCCC=[*:3])N[*:1])[*:2]; X3 = O=C([C@H](CCCCCC=[*:3])N[*:1])[*:2]; Ala(5-hexenyl) = C=CCCCCC[C@H](N)C(=O)O; dNle(6-vinyl) = C=CCCCC[C@@H](N)C(=O)O; Gla = N[C@@H](CC(C(=O)O)C(=O)O)C(=O)O

Test [1] can be described thus: Lipid (liposome) solubilization, turbidimetric method. Type of test: biochemical. As for the experimental part: As noted above, the other important parameter was phospholipid solubilization. A turbidimetric method is used to determine the solubilization capacity of peptides of the present invention. First, a three-fold serial titration of the peptide is prepared in a polypropylene v-shaped 96-well plate. The eight-point titration is done in phosphate-buffered saline (PBS, pH 7.5) or DMSO from a starting concentration that allows for addition to an optically-clear bottomed assay plate in <100 μl aliquots to yield a starting concentration of 500 μM in 200 μl final well volume. PBS is then added to each well to bring the total volume to 100 μl. Any bubbles in the wells must be dispersed to avoid erroneous results. Next, from a turbid but homogeneous emulsion of dimyristoyl phosphatidylcholine at 0.5 mg/ml in PBS, 100 μl is added to each well in the assay plate, the plate is inserted into the NEPHELOSTAR (BMG LABTECH INSTRUMENTS), and readings are taken immediately and every 15 minutes over 2 hours.
A true 0-point value is calculated by averaging the readings of the wells with phospholipid but no peptide. For each peptide concentration, a percent decrease in turbidity is calculated by subtracting the 0-point value from the corresponding 30 and 120 minute readings and dividing by that 0-point value. Finally the EC50 values for both time points are determined using PRISM software (Table 2).

Test [2] deals with T1, ABCA1 cholesterol transporter protein (Mus musculus, UniProt P41233).
T1 construct: endogenous in cells
The experiment in a line: ABCA1-dependent cholesterol efflux from RAW mouse macrophage cells (in vitro RCT assay). The note with it: for EC50: read-out: EC50 in the cholesterol efflux assay (RCT in vitro assay). The class given is cell-based. The source says: Peptides of the present invention were designed based on amphipathic properties and their abilities to solubilize phospholipids and promote cholesterol efflux. The most direct functional measurement of efficacy for the ApoA-1 peptide mimetic is its capacity to improve the efflux of cholesterol from the cell. The RAW and J774 cell lines are reliable mouse macrophage cell lines frequently used in the art for this purpose. […] The RAW cell line is preferred and recited in the description below.
In the present assay, the RAW cells are plated at 1.5×10^5 cells/200 μl/well/48-well plate in DMEM complete medium (with 10% FBS from INVITROGEN and 1% penicillin-streptomycin-glutamine from GIBCO) and ^3H-cholesterol at 5 μCi/ml. After 24 hours incubation in a moist 37° C. atmosphere with 5% CO2, the spent medium is removed, the cells are washed once with serum-free DMEM (0.1% fatty acid free bovine serum albumin replaces the FBS), and fresh serum-free medium (200 μl) is added to each well. After overnight incubation in the serum-free medium to allow the cellular cholesterol pools to equilibrate, the spent medium is removed, and fresh serum-free medium is added with/without CPT-cAMP (150 μM final). Eight-point serial titrations of the peptide/s being tested are added at this time (duplicate titrations in plain medium without cAMP and duplicate titrations in medium containing cAMP).
After 24 hours incubation in the various conditions, the medium is harvested from each well and 50 μl aliquots are counted. The cells are then lysed by adding 500 μl of HEPES/Triton lysis buffer to each well. The lysis is facilitated by freezing and thawing once. After thawing, the lysates are mixed well and 50 μl aliquots are counted.
The percent efflux of each peptide in each medium condition (±cAMP) is calculated by dividing the total counts in the medium by the sum of the total counts in the medium and lysate. The percent efflux seen with plain medium is subtracted from the percent efflux seen with the cAMP-stimulated efflux to yield the reported ABCA1-stimulated values. EC50 values are determined using PRISM software (Table 2).

[3] abbreviates: read-out: IC50 in the liposome solubilization assay.

As a reminder, the IC50 is the concentration needed to halve the response being measured. As usually defined, the EC50 is the concentration at which the effect is half-maximal.

T1 sequence (P41233 whole entry): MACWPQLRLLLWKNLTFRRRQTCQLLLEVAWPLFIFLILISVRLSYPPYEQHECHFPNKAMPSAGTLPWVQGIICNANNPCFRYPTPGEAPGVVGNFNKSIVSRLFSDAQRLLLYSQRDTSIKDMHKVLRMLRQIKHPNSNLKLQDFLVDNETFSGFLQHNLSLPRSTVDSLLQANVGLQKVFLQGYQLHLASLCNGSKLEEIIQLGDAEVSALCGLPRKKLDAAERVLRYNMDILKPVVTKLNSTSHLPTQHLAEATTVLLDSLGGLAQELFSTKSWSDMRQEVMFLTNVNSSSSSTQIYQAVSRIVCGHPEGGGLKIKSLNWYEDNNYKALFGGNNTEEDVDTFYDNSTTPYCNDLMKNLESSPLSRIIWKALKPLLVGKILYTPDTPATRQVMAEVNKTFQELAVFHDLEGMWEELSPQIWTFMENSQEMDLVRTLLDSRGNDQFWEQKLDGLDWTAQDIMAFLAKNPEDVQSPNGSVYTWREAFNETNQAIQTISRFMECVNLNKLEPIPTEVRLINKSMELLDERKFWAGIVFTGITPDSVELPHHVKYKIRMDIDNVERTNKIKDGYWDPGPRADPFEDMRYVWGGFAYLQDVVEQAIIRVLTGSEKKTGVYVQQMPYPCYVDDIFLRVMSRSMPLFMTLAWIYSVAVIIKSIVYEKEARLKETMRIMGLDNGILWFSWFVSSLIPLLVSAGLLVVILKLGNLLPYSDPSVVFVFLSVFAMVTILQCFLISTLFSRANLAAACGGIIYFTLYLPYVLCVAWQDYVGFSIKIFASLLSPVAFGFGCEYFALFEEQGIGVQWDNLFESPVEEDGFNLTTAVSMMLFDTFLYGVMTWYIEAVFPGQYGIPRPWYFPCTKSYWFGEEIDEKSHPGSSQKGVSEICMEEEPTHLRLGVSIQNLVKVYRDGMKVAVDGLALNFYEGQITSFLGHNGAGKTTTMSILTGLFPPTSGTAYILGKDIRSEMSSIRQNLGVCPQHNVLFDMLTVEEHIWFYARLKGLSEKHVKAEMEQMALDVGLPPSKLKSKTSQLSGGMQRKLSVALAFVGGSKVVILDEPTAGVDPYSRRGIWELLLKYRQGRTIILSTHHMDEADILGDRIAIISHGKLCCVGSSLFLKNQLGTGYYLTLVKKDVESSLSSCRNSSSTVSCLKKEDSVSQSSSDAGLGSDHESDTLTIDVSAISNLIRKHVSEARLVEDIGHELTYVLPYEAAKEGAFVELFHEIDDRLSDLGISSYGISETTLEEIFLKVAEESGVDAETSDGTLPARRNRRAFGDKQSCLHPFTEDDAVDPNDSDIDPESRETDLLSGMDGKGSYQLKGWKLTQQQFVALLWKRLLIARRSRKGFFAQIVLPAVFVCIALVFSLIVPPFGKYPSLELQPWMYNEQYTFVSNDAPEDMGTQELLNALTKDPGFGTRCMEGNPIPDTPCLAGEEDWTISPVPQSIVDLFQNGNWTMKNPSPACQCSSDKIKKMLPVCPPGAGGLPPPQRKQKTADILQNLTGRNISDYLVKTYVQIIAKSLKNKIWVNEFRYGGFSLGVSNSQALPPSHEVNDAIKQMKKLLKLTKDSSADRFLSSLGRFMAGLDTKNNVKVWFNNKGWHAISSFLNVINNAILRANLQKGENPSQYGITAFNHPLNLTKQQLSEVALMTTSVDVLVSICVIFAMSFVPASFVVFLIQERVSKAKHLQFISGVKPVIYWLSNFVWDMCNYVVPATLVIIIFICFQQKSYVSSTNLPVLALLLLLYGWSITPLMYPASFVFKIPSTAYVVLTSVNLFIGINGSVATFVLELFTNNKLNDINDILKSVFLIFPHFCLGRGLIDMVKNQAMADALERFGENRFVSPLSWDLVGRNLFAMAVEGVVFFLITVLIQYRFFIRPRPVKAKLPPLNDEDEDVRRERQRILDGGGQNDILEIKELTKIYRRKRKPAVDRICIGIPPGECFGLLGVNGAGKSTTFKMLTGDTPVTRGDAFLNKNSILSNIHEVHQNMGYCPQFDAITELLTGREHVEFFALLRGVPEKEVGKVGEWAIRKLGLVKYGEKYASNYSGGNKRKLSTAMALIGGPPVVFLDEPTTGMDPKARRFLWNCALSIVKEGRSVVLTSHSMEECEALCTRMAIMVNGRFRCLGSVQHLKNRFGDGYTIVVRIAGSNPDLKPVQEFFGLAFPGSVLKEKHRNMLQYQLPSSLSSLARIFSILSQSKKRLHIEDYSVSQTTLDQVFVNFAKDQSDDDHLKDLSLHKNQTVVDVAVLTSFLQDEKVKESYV

On to “16 (Ac-PVLDEFRE[R5Me]LNE[R5Me]LEALKQKLK; not fully specified (C-terminus)) [compound 16]”, for which the IC50 in test [1] (Measured at 2 h, read-out: LIPID SOLUBILIZATION IC50) worked out at 24 µM. On to `C=CCCC[C@@H](NC(=O)[C@H](CCC(=O)O)NC(=O)[C@H](CC(N)=O)NC(=O)[C@H](CC(C)C)NC(=O)[C@@H](CCCC=C)NC(=O)[C@H](CCC(=O)O)NC(=O)[C@H](CCCNC(=N)N)NC(=O)[C@H](Cc1ccccc1)NC(=O)[C@H](CCC(=O)O)NC(=O)[C@H](CC(=O)O)NC(=O)[C@H](CC(C)C)NC(=O)[C@@H](NC(=O)[C@@H]1CCCN1C(C)=O)C(C)C)C(=O)N[C@@H](CC(C)C)C(=O)N[C@@H](CCC(=O)O)C(=O)N[C@@H](C)C(=O)N[C@@H](CC(C)C)C(=O)N[C@@H](CCCCN)C(=O)N[C@@H](CCC(N)=O)C(=O)N[C@@H](CCCCN)C(=O)N[C@@H](CC(C)C)C(=O)N[C@@H](CCCCN)C(N)=O` [SEQ ID NO 9, PVLDEFRER5HLNER5HLEALKQKLK] (Ac-PVLDEFRE[dNle(6-ylidene)]LNE[dNle(6-ylidene)]LEALKQKLK-NH2; C-terminus assumed), for which the IC50 in test [1] (setting [3]) is 91 µM. With `C=CCCCCC[C@H](NC(=O)[C@H](CCC(=O)O)NC(=O)[C@H](CC(=O)O)NC(=O)[C@H](CC(C)C)NC(=O)[C@@H](NC(=O)[C@@H]1CCCN1C(C)=O)C(C)C)C(=O)N[C@@H](CCCNC(=N)N)C(=O)N[C@@H](CCC(=O)O)C(=O)N[C@@H](CCCCN)C(=O)N[C@@H](CC(C)C)C(=O)N[C@@H](CC(N)=O)C(=O)N[C@@H](CCC(=O)O)C(=O)N[C@H](CCCCC=C)C(=O)N[C@@H](CC(C)C)C(=O)N[C@@H](CCC(=O)O)C(=O)N[C@@H](C)C(=O)N[C@@H](CC(C)C)C(=O)N[C@@H](CCCCN)C(=O)N[C@@H](CCC(N)=O)C(=O)N[C@@H](CCCCN)C(=O)N[C@@H](CC(C)C)C(=O)N[C@@H](CCCCN)C(N)=O` [SEQ ID NO 10, PVLDES7HREKLNER6HLEALKQKLK] (Ac-PVLDE[Ala(5-hexenyl)]REKLNE[dNle(6-vinyl)]LEALKQKLK-NH2; C-terminus assumed), the IC50 in test [1] (setting [3]) worked out at 44 µM. Besides, the EC50 in test [2] is 1.2 µM.

For `CC(=O)N1CCC[C@H]1C(=O)N[C@H](C(=O)N[C@@H](CC(C)C)C(=O)N[C@@H](CC(=O)O)C(=O)N[C@@H](CCC(=O)O)C(=O)N[C@@H](Cc1ccccc1)C(=O)N[C@@H](CCCNC(=N)N)C(=O)N[C@@H](CCC(=O)O)C(=O)N[C@@H]1CCCC=CCCC[C@H](C(=O)N[C@@H](CC(C)C)C(=O)N[C@@H](CCC(=O)O)C(=O)N[C@@H](C)C(=O)N[C@@H](CC(C)C)C(=O)N[C@@H](CCCCN)C(=O)N[C@@H](CCC(N)=O)C(=O)N[C@@H](CCCCN)C(=O)N[C@@H](CC(C)C)C(=O)N[C@@H](CCCCN)C(N)=O)NC(=O)[C@H](CCC(=O)O)NC(=O)[C@H](CC(N)=O)NC(=O)[C@H](CC(C)C)NC1=O)C(C)C` [SEQ ID NO 12, PVLDEFRER5HLNER5HLEALKQKLK (CYCLO R5H9-R5H13)] (Ac-PVLDEFRE[dNle(6-ylidene)]LNE[dNle(6-ylidene)]LEALKQKLK-NH2; staple 9-13; C-terminus assumed), the IC50 in test [1] (setting [3]) was 60 µM. Further, in test [2], the EC50 amounted to 10 µM. With `C=CCCCCC[C@H](NC(=O)[C@H](CCC(=O)O)NC(=O)[C@H](CC(N)=O)NC(=O)[C@H](CC(C)C)NC(=O)[C@H](CCCCN)NC(=O)[C@H](CCC(=O)O)NC(=O)[C@H](CCCNC(=N)N)NC(=O)[C@@H](CCCCC=C)NC(=O)[C@H](CCC(=O)O)NC(=O)[C@H](CC(=O)O)NC(=O)[C@H](CC(C)C)NC(=O)[C@@H](NC(=O)[C@@H]1CCCN1C(C)=O)C(C)C)C(=O)N[C@@H](CC(C)C)C(=O)N[C@@H](CCC(=O)O)C(=O)N[C@@H](C)C(=O)N[C@@H](CC(C)C)C(=O)N[C@@H](CCCCN)C(=O)N[C@@H](CCC(N)=O)C(=O)N[C@@H](CCCCN)C(=O)N[C@@H](CC(C)C)C(=O)N[C@@H](CCCCN)C(N)=O` [SEQ ID NO 13, PVLDER6HREKLNES7HLEALKQKLK] (Ac-PVLDE[dNle(6-vinyl)]REKLNE[Ala(5-hexenyl)]LEALKQKLK-NH2; C-terminus assumed), the IC50 in test [1] (setting [3]) came to 25 µM. Regarding `CC(=O)N1CCC[C@H]1C(=O)N[C@H](C(=O)N[C@@H](CC(C)C)C(=O)N[C@@H](CC(=O)O)C(=O)N[C@@H](CCC(=O)O)C(=O)N[C@@H]1CCCCC=CCCCCC[C@@H](C(=O)N[C@@H](CC(C)C)C(=O)N[C@@H](CCC(=O)O)C(=O)N[C@@H](C)C(=O)N[C@@H](CC(C)C)C(=O)N[C@@H](CCCCN)C(=O)N[C@@H](CCC(N)=O)C(=O)N[C@@H](CCCCN)C(=O)N[C@@H](CC(C)C)C(=O)N[C@@H](CCCCN)C(N)=O)NC(=O)[C@H](CCC(=O)O)NC(=O)[C@H](CC(N)=O)NC(=O)[C@H](CC(C)C)NC(=O)[C@H](CCCCN)NC(=O)[C@H](CCC(=O)O)NC(=O)[C@H](CCCNC(=N)N)NC1=O)C(C)C` [SEQ ID NO 14, PVLDER6HREKLNES7HLEALKQKLK (CYCLO R6H6-S7H13)] (Ac-PVLDE[X2]REKLNE[X3]LEALKQKLK-NH2; staple 6-13; C-terminus assumed), the IC50 in test [1] (setting [3]) was determined as 43 µM. In addition, the EC50 in test [2] was 2 µM.

Regarding `C=CCCCC[C@@H](NC(=O)[C@H](CCC(=O)O)NC(=O)[C@H](CC(N)=O)NC(=O)[C@H](CC(C)C)NC(=O)[C@H](CCCCN)NC(=O)[C@H](CCC(=O)O)NC(=O)[C@H](CCCNC(=N)N)NC(=O)[C@H](Cc1ccccc1)NC(=O)[C@H](CCC(=O)O)NC(=O)[C@H](CC(=O)O)NC(=O)[C@H](CC(C)C)NC(=O)[C@@H](NC(=O)[C@@H]1CCCN1C(C)=O)C(C)C)C(=O)N[C@@H](CC(C)C)C(=O)N[C@@H](CCC(=O)O)C(=O)N[C@@H](C)C(=O)N[C@@H](CC(C)C)C(=O)N[C@@H](CCCCN)C(=O)N[C@@H](CCC(N)=O)C(=O)N[C@@H](CCCCN)C(=O)N[C@@H](CC(C)C)C(=O)N[C@@H](CCCCN)C(N)=O` [SEQ ID NO 18, PVLDEFREKLNER6HLEALKQKLK] (Ac-PVLDEFREKLNE[dNle(6-vinyl)]LEALKQKLK-NH2; C-terminus assumed), in test [1] (setting [3]), the IC50 came out at 32 µM. As for `CC(=O)N1CCC[C@H]1C(=O)N[C@H](C(=O)N[C@@H](CC(C)C)C(=O)N[C@@H](CC(=O)O)C(=O)N[C@@H](CCC(=O)O)C(=O)N[C@@H](Cc1ccccc1)C(=O)N[C@@H](CCCNC(=N)N)C(=O)N[C@@H](CC(C(=O)O)C(=O)O)C(=O)N[C@@H](CCCCN)C(=O)N[C@@H](CC(C)C)C(=O)N[C@@H](CC(N)=O)C(=O)N[C@@H](CCC(=O)O)C(=O)N[C@@H](C)C(=O)N[C@@H](CC(C)C)C(=O)N[C@@H](CCC(=O)O)C(=O)N[C@@H](C)C(=O)N[C@@H](CC(C)C)C(=O)N[C@@H](CCCCN)C(=O)N[C@@H](CCC(N)=O)C(=O)N[C@@H](CCCCN)C(=O)N[C@@H](CC(C)C)C(=O)N[C@@H](CCCCN)C(N)=O)C(C)C` [compound 3] (Ac-PVLDEFR[Gla]KLNEALEALKQKLK-NH2; C-terminus assumed), in test [1] (Measured at 2 h), the “LIPID SOLUBILIZATION IC50” value is “NOT ACTIVE”. For the compound “Ac-PVLDEFREKLNEELEALKQKLK-NH2 [SEQ ID NO 1, reference compound]”, in test [1], the “lipid binding / ability to clear liposome turbidity, in words” value was “inactive”. Also, the “activity in the cholesterol efflux / in vitro RCT assay, in words” value in test [2] is “inactive”. Consider “PR7HLDEFREKLNEELEALKQKLK (Ac-P[dGly(6-heptenyl)]LDEFREKLNEELEALKQKLK; not fully specified (C-terminus)) [SEQ ID NO 20]”, for which, in test [2], the “activity in the cholesterol efflux / in vitro RCT assay, in words” value is reported as “only slightly active”. For “PS6HLDEFREKLNEELEALKQKLK (Ac-P[S6H]LDEFREKLNEELEALKQKLK; not fully specified (C-terminus)) [SEQ ID NO 23]”, the “activity in the cholesterol efflux / in vitro RCT assay, in words” value in test [2] is reported as “only slightly active”. Still for that read-out and setting: then “PVLDEFREKLNEELEALKQR7HLK (Ac-PVLDEFREKLNEELEALKQ[dGly(6-heptenyl)]LK; not fully specified (C-terminus); printed as PVLDEFREKLNEELEALKQR7HLK) [SEQ ID NO 22]”, with “only slightly active”. On the same count and under the same terms, the same measure for “PVLDEFREKLNEELEALKQS6HLK (Ac-PVLDEFREKLNEELEALKQ[S6H]LK; not fully specified (C-terminus); printed as PVLDEFREKLNEELEALKQS6HLK) [SEQ ID NO 25]”: “only slightly active”.
